According to patent US20100068747A1, “Generic Assay for Monitoring Endocytosis” (Evotec Technologies GmbH, priority 2005, published 2010):
“Also recorded” adds a separate entry of the source.

How the values were obtained:
[1] = tested on: U2OS/ETAR-GFP cells; experiment: Internalization pathway analysis in U2OS/ETAR-GFP cells; format: cell-based, human
Description: With regard to the internalization pathway analysis in U2OS/ETAR-GFP cells, RDE was inhibited by including 5 mM β-methyl-cyclodextrin (CD) in the leveling medium. The following labeling and chase incubations were conducted in standard assay medium. For inhibition of clathrin mediated endocytosis cells were subjected to hypotonic shock by incubating 5 minutes at 37° C. in a 1:1 starvation medium-ddH2O mixture and then were transferred into a potassium (K^+) depleted assay medium for temperature leveling. The following labeling and chase incubations were also conducted in K^+ depleted assay medium, which was prepared by substituting sodium salts for all potassium salts in HBSS. Inhibition of both pathways was achieved by combining both methods and including 5 mM CD in the leveling medium for CLAME inhibition. For CLAME controls, 5 μg/ml Alexa Fluor 488 conjugated transferrin was included during the labeling period for all inhibited pathway scenarios. Protocol procedures were conducted as described, however, lectins were omitted in the labeling step. For lipid raft-dependent pathways there were no control markers available.

[2] = tested on: U2OS/ETAR-GFP cells; experiment: Lectin labeling of live cells, U2OS/ETAR-GFP; format: cell-based, human; conditions: TRITC-lectin, 10 nM at maximum
Description: (§1) Lectin labeling of live cells was conducted as follows: Cells were seeded as described above. After 24 hours cells were washed once with PBS and incubated in the incubator for another 2 hours in the respective standard medium without serum supplement to deprive them of serum factor mediated stimuli. This step was termed starvation period. Subsequently, cells were washed gently with PBS and incubated with 37° C. tempered assay medium comprised of Hank's Balanced Salt Solution (HBSS) pH 7.4, containing 20 mM HEPES and 30 mM D-glucose. The plate was left at RT for 30 minutes to slowly level its temperature and, thus, avoid capturing of temperature drop induced membrane dynamics. This period was termed leveling period. Then, assay medium was withdrawn and wells refilled with TRITC-lectin solutions at RT to start cell labeling. Several lectin concentrations in the low nano-molar range were tested. Molar concentrations were calculated from the data provided by Vector Labs. The plate was placed on a rotating shaker at low revolutions for 10 minutes while incubating. The start of the lectin incubation is referred to as assay starting point with t=0 min. After the 10 min incubation period the cells were gently washed with PBS and wells refilled with assay buffer at RT. Instantly thereafter, fluorescence signals were monitored predominately using the epifluorescence microscope.
(§2) The following microscopy and image analysis techniques were employed. When utilizing the epifluorescence microscope magnifications were adjusted according to the purpose of observation, e.g. single cell vs. cell collective. Concerning the filters U-MNU was used for Hoechst, U-MSWB for GFP, and U-N41007 for TRITC detection. Hoechst images were taken at 50 ms exposure time, GFP images at 100 to 200 ms and TRITC images needed 500 to 1000 ms. Overlay images were assembled with AnalySIS and tuned in color intensity to obtain the desired color contrast. Images taken to compare two experimental conditions, e.g. control vs. stimulus, featured identical exposure parameters. If possible, well areas were chosen that reflect similar states of confluence. Utilizing the Opera confocal fluorescence imager, the instrument was calibrated running standard methods for skew cropping (spatial camera alignments) and camera intensity normalization.

[3] = tested on: CHO/PAR-2 cells; experiment: Lectin labeling of fixed cells, CHO/PAR-2; format: cell-based; conditions: TRITC-lectin 10 nM and 20 nM
Description: (§3) Lectin labeling of fixed cells was conducted as follows: To detach confluent cells in order to prepare experiments for internalization studies, cells were always treated with EDTA solution instead of trypsin solution. For all seeding, washing, and labeling steps in 96-well plates a working volume of 100 μl per well was assessed. Cells were seeded out into a 96-well plate at different concentrations. U2OS/ETAR-GFP suspensions were adjusted to yield 2*10^4 cells/well, both of the CHO cell lines must be at 2.5*10^4 cells/well. Cells became confluent after 24 hours of incubation. In the following, they were washed with phosphate buffered saline (PBS) and fixed with 3% PFA for 20 minutes at RT. Then, cells were washed again with PBS and incubated in 10 nM and 20 nM solutions of each TRITC-lectin candidate in PBS, respectively. Again, cells were washed with PBS to remove excess lectin, and wells were refilled with PBS for analysis. For specificity controls, lectin solutions were incubated for 30 minutes prior to the application with an excess of the monosaccharide that represents the respective glyco-epitope.
as §2

[4] = tested on: U2OS/ETAR-GFP cells; experiment: Lectin labeling of fixed cells, U2OS/ETAR-GFP; format: cell-based, human; conditions: TRITC-lectin 10 nM and 20 nM
Description: as §3, §2

[5] = tested on: CHO/PAR-2 cells; experiment: Lectin labeling of live cells, CHO/PAR-2; format: cell-based; conditions: TRITC-lectin, 10 nM at maximum
Description: as §1, §2

[6] = tested on: CHO/ETAR cells; experiment: Lectin labeling of fixed cells, CHO/ETAR; format: cell-based; conditions: TRITC-lectin 10 nM and 20 nM
Description: as §3, §2

[7] = tested on: CHO/ETAR cells; experiment: Lectin labeling of live cells, CHO/ETAR; format: cell-based; conditions: TRITC-lectin, 10 nM at maximum
Description: as §1, §2

[8] = tested on: CHO/PAR-2 cell membrane protein; experiment: Lectin blotting of PAR-2 membrane sample; format: binding; conditions: biotinylated lectin 5 μg/ml
Description: (§4) Membrane preparation was conducted as follows: Cells were cultured in five T175 flasks until confluency. Confluent cells were detached by applying 3 ml of EDTA solution onto the PBS washed cells. Following a 20-minute incubation at 37° C. and 5% CO2, cells were resuspended in 12 ml of starvation medium (standard medium without FCS), counted, and centrifuged in a Heraeus Megafuge 1.0R at 133 rcf for 4 minutes. All subsequent steps were carried out on ice and with ice cold solutions. After unification of all pellet fractions, hypotonic lysis buffer was added to the cells at a ratio of 1 ml per 5*10^7 cells. Additionally, protease inhibitor cocktail was added to 50 μl per 5*10^7 cells. Cells were homogenized with 30 strokes in a 5 ml potter on ice, centrifuged at 4° C. and 917 rcf for 10 minutes, and the supernatant was stored in an ultracentrifuge tube on ice. The pellet fraction was homogenized and centrifuged once again as described above. The supernatants of both procedures were unified and centrifuged at 4° C. and 100,000 rcf for 45 minutes in a Sorvall ultra-centrifuge. The supernatant of this centrifugation procedure was withdrawn and the pellet dissolved in 0.5 ml or 1.0 ml modified SDS PAGE loading buffer containing Tris-HCl, SDS, glycerol, but no β-mercapto-ethanol or dyes and stored in small aliquots of 50 μl at −20° C.
(§5) SDS-Page of membrane samples was conducted as follows: Discontinuous 12% polyacrylamide gels were prepared according to a standard protocol. Broad range marker and 25 μg membrane protein were mixed 1:1 with loading buffer and loaded five times onto a mini gel in alternating order. The gels were run at U=100 V for the first 20 minutes. Subsequently, voltage was increased to U=150 V. The run was aborted as soon as the pyronin G band reached the end of the gel. For coomassie staining, gels were put in coomassie staining solution on a shaker at low revolutions for 45 min. The staining solution was removed and the gel incubated with destaining solution for one to two hours, exchanging the solution several times until the desired contrast was obtained.
Blotting of membrane samples was conducted as follows: For blotting, 3 mm packs of Whatman papers were extensively soaked in one of the diverging blotting buffers, AB I, AB II, and CB, and a pile was assembled in a semi-dry Trans-Blot 3D system from Bio-Rad as depicted in the sketch of FIG. 2. Hybond nitrocellulose membrane was submerged in AB II prior to assembly. To smooth out any air bubbles from the pile, a Pasteur pipette was rolled several times over the top layer. The apparatus was closed and ran at U=25 V for 45 minutes. Then, the pile was disassembled, the membrane submerged in Ponceau S solution and gently swayed for 2 minutes. For destaining, ddH2O was substituted for the staining solution, and the membrane was briefly rinsed twice. After drying under ambient conditions, the marker bands were marked with a ballpoint-pen. The membrane was cut into slices each displaying one marker and one sample lane.
Probing of membrane samples was conducted as follows: For classical western blotting, membranes were blocked in PBS containing 5% low fat dried milk powder. They were placed on a rotating shaker at low revolutions for 1 hour. Subsequently, membranes were sealed in plastic bags with blocking solution additionally containing 1 μg/ml anti-PAR-2 antibody (1:400) or 0.5 μg/ml of anti-ETAR antibody (1:500), depending on the respective recombinant cell type used for the sample. […]

[9] = tested on: live cells; experiment: Signal transformation on live cells after labeling with fluorescent lectins (all cell lines); format: cell-based; conditions: all experiments
Description: as §1, with “The plate was placed on a rotating shaker at low revolutions for 10 minutes while incubating. The start of the lectin incubation is referred to as assay starting point with t=0 min. After the 10 min incubation period the cells were gently washed with PBS and wells refilled with assay buffer at RT.” left out
The following microscopy and image analysis techniques were employed. […] Utilizing the Opera confocal fluorescence imager, the instrument was calibrated running standard methods for skew cropping (spatial camera alignments) and camera intensity normalization.

[10] = tested on: U2OS cells; experiment: Specificity control with competing monosaccharide on fixed cells; format: cell-based, human; conditions: excess of inhibitory monosaccharide
Description: as §3

[11] = tested on: CHO/ETAR cell membrane protein; experiment: Lectin blotting of ETAR membrane sample; format: binding; conditions: biotinylated lectin 5 μg/ml
Description: as §4
as §5, with “obtained. […]” for “obtained.”

[12] = tested on: U2OS/ETAR-GFP cells; experiment: Effect of lectin incubation on morphology of live cells; format: cell-based, human; conditions: 5 nM, 10 nM, and 20 nM versus the control
Description: as §1

[13] = tested on: U2OS/ETAR-GFP cells; experiment: Serum supplements (insulin) in live cell labeling; format: cell-based, human; conditions: 20 nM in assay medium in labeling and chase incubations
Description: For serum supplements in live cell labeling, starvation was carried out in Opti-MEM medium (11058; Gibco—Invitrogen, Karlsruhe, Germany). The following labeling and chase incubations were conducted in assay medium with a 20 nM insulin supplement.

Substance: Alexa-Fluor® 488-transferrin: Human holo-transferrin-Alexa Fluor 488 conjugate, standard marker of the clathrin-mediated pathway
- signals of clathrin-mediated pathway marker ([1]; 5 μg/ml, all conditions but inhibition of the clathrin-dependent pathway): detected in the perinuclear region

Substance: Griffonia (Bandeiraea) simplicifolia lectin [GSL-I]
- Live cell staining of U2OS/ETAR-GFP [2]: signal points were significantly smaller and less; also recorded: small, scattered
- Staining of CHO/PAR-2 [3]: reduced intensity with a high background; also recorded: weak cell surface
- Staining of U2OS/ETAR-GFP [4]: very faint signal covering only some single cells; also recorded: weak single cell

Substance: Lens culinaris agglutin [LCA]
- Live cell staining of U2OS/ETAR-GFP [2]: spot formation
- Live cell staining of CHO/PAR-2 [5]: spot formation
- Staining of CHO/ETAR [6]: cell surface
- Staining of CHO/PAR-2 [3]: reduced intensity with a high background; also recorded: weak cell surface
- Live cell staining of CHO/ETAR [7]: fluorescence accumulation in the form of tiny points around the cell boundaries; also recorded: cell boundary, points
- Staining of U2OS/ETAR-GFP [4]: extensive fluorescence was observed at the cell surface
- band at the same height as the western band (55 kDa, anti-PAR-2) [8]: one of them matching the height of the western band
- bands detected above 35 kDa ([8]; exposure one to five minutes): four

Substance: Phaseolus vulgaris erythroagglutin [PHA-E]
- Live cell staining of U2OS/ETAR-GFP [2]: spot formation
- Live cell staining of CHO/PAR-2 [5]: strong signal contrast between the relatively unstained nucleus area and its fluorescing perimeter; also recorded: spot formation
- Staining of CHO/ETAR [6]: cell surface
- Staining of CHO/PAR-2 [3]: signals clearly marking individual cells; also recorded: cell surface
- Live cell staining of CHO/ETAR [7]: cell surface, sequestered
- stability of fluorescence signal over time [9]: fairly stable signals
- Staining of U2OS/ETAR-GFP [4]: extensive fluorescence was observed at the cell surface
- fluorescent signal in the presence of the competing monosaccharide [10]: reduced

Substance: Phaseolus vulgaris leucoagglutin [PHA-L]
- Live cell staining of U2OS/ETAR-GFP [2]: spot formation
- Live cell staining of CHO/PAR-2 [5]: strong signal contrast between the relatively unstained nucleus area and its fluorescing perimeter; also recorded: spot formation
- Staining of CHO/ETAR [6]: cell surface
- Staining of CHO/PAR-2 [3]: signals clearly marking individual cells; also recorded: cell surface
- Live cell staining of CHO/ETAR [7]: cell surface, sequestered
- stability of fluorescence signal over time [9]: fairly stable signals
- Staining of U2OS/ETAR-GFP [4]: extensive fluorescence was observed at the cell surface
- fluorescent signal in the presence of the competing monosaccharide [10]: reduced

Substance: Pisum sativum agglutin [PSA]
- Live cell staining of U2OS/ETAR-GFP [2]: spot formation
- Staining of CHO/PAR-2 [3]: reduced intensity with a high background; also recorded: weak cell surface
- Staining of U2OS/ETAR-GFP [4]: extensive fluorescence was observed at the cell surface
- band at the same height as in the western (47 kDa, anti-ETAR) [11]: could clearly be detected

Substance: Sophora japonica agglutin [SJA]
- Live cell staining of U2OS/ETAR-GFP [2]: medium sized, scattered spots
- effect on U2OS/ETAR-GFP cells, phase contrast [12]: Irritating effect
- Staining of U2OS/ETAR-GFP [4]: only several little, spot-like signals on each cell; also recorded: weak spots on cell
- fluorescent signal in the presence of the competing monosaccharide [10]: reduced

Substance: porcine insulin
- effect on spot formation of sWGA signal [13]: complete suppression of spot formation

Substance: β-methyl-cyclodextrin
- spot formation of sWGA signal under inhibition of raft-dependent pathways ([1]; 5 mM in leveling medium, cholesterol extraction): did not impede the typical spot formation
